Where “and” joins values, the source holds several entries; their conditions need not be identical. Identical values can stand only once. Each block holds one molecule with its values, some of them ahead of it.
Test system: 317291-083-R-J1-PDC complex spheroid growth
Experiment: Anticancer human tumor 317291-083-R-J1-PDC patient-derived soft tissue sarcoma cell line growth inhibition [Asc]
Details: for IC50: curve of first compound; for viability, T/C: stronger effect = lower value
How it was run: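 Spheroid model: tumor line + HUVEC + hMSC. Single agents and combinations; top conc. at/near clinical Cmax (10 microM if undetermined), half-log dilutions. DMSO stocks at 800-fold test concentration.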
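Further: compound exposure lasted seven days after spheroids formed for three days.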
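Wherever viability, T/C is given: 100% = DMSO vehicle control wells.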

- IC50 (second compound 0.0316 µM): 19.5 nM
- IC50 (second compound 0.1 µM): 26.3 nM
- IC50 (second compound 0.316 µM): 15.5 nM
- IC50 (second compound 1 µM): 17.8 nM
- IC50 (second compound 3.16 µM): 14.4 nM
- IC50 (second compound 10 µM): 24.2 nM
Structure (SMILES): NC(=O)C(=Cn1cnc(-c2cc(C(F)(F)F)cc(C(F)(F)F)c2)n1)c1cncnc1 + Cc1c(S(C)(=O)=O)c(-c2cc(F)cc(N3CCN(c4ccc(NS(=O)(=O)c5ccc(NC(CCN6CCC(C(=O)OCCCP(=O)(O)O)CC6)CSc6ccccc6)c(S(=O)(=O)C(F)(F)F)c5)cc4)CC3)c2)c(-c2ccc(Cl)cc2)n1C(C)C
- viability, T/C (second compound 0.0316 µM, first compound 0.000949 µM): 105%
- viability, T/C (second compound 0.0316 µM, first compound 0.003 µM): 73.8%
- viability, T/C (second compound 0.0316 µM, first compound 0.00949 µM): 71.2%
- viability, T/C (second compound 0.0316 µM, first compound 0.03 µM): 47.7%
- viability, T/C (second compound 0.0316 µM, first compound 0.0949 µM): 3.73%
- viability, T/C (second compound 0.0316 µM, first compound 0.3 µM): 1.57%
- viability, T/C (second compound 0.1 µM, first compound 0.000949 µM): 98.8%
- viability, T/C (second compound 0.1 µM, first compound 0.003 µM): 94.7%
- viability, T/C (second compound 0.1 µM, first compound 0.00949 µM): 72.6%
- viability, T/C (second compound 0.1 µM, first compound 0.03 µM): 53.8%
- viability, T/C (second compound 0.1 µM, first compound 0.0949 µM): 4.66%
- viability, T/C (second compound 0.1 µM, first compound 0.3 µM): 0.74%
- viability, T/C (second compound 0.316 µM, first compound 0.000949 µM): 99.6%
- viability, T/C (second compound 0.316 µM, first compound 0.003 µM): 114%
- viability, T/C (second compound 0.316 µM, first compound 0.00949 µM): 59.6%
- viability, T/C (second compound 0.316 µM, first compound 0.03 µM): 31.9%
- viability, T/C (second compound 0.316 µM, first compound 0.0949 µM): 1.71%
- viability, T/C (second compound 0.316 µM, first compound 0.3 µM): 0.54%
- viability, T/C (second compound 1 µM, first compound 0.000949 µM): 89.3%
- viability, T/C (second compound 1 µM, first compound 0.003 µM): 88.8%
- viability, T/C (second compound 1 µM, first compound 0.00949 µM): 69.8%
- viability, T/C (second compound 1 µM, first compound 0.03 µM): 33.5%
- viability, T/C (second compound 1 µM, first compound 0.0949 µM): 5.89%
- viability, T/C (second compound 1 µM, first compound 0.3 µM): 0.53%
- viability, T/C (second compound 3.16 µM, first compound 0.000949 µM): 74.7%
- viability, T/C (second compound 3.16 µM, first compound 0.003 µM): 76.1%
- viability, T/C (second compound 3.16 µM, first compound 0.00949 µM): 59.4%
- viability, T/C (second compound 3.16 µM, first compound 0.03 µM): 31.6%
- viability, T/C (second compound 3.16 µM, first compound 0.0949 µM): 2.57%
- viability, T/C (second compound 3.16 µM, first compound 0.3 µM): 0.29%
- viability, T/C (second compound 10 µM, first compound 0.000949 µM): 105%
- viability, T/C (second compound 10 µM, first compound 0.003 µM): 118%
- viability, T/C (second compound 10 µM, first compound 0.00949 µM): 84.4%
- viability, T/C (second compound 10 µM, first compound 0.03 µM): 44.5%
- viability, T/C (second compound 10 µM, first compound 0.0949 µM): 1.64%
- viability, T/C (second compound 10 µM, first compound 0.3 µM): 0.33%

Structure (SMILES): NC(=O)C(=Cn1cnc(-c2cc(C(F)(F)F)cc(C(F)(F)F)c2)n1)c1cncnc1
- viability, T/C (compound 0.000949 µM): 92.5% and 89.6% and 23.9%
- viability, T/C (compound 0.003 µM): 88.1% and 74.5% and 25.9%
- viability, T/C (compound 0.00949 µM): 92.4% and 72% and 36.3%
- viability, T/C (compound 0.03 µM): 45.8% and 39.8% and 16%
- viability, T/C (compound 0.0949 µM): 6.6% and 6.29% and 7.34%
- viability, T/C (compound 0.3 µM): 3.75% and 1.91% and 3.91%

- IC50 (second compound 0.00949 µM): > 10000 nM
- IC50 (second compound 0.03 µM): > 10000 nM
- IC50 (second compound 0.0949 µM): > 10000 nM
- IC50 (second compound 0.3 µM): > 10000 nM
- IC50 (second compound 0.949 µM): > 10000 nM
- IC50 (second compound 3 µM): > 10000 nM
Structure (SMILES): C#Cc1c(F)ccc2cc(O)cc(-c3ncc4c(N5CC6CCC(C5)N6)nc(OCC56CCCN5CC(F)C6)nc4c3F)c12 (stereo not given) + CCN1C(C(=O)NC23CCC(C(=O)O)(CC2)CC3)C(c2cccc(Cl)c2F)C2(C(=O)Nc3cc(Cl)ccc32)C12CCCCC2
- viability, T/C (second compound 0.00949 µM, first compound 0.0316 µM): 129%
- viability, T/C (second compound 0.00949 µM, first compound 0.1 µM): 78.8%
- viability, T/C (second compound 0.00949 µM, first compound 0.316 µM): 125%
- viability, T/C (second compound 0.00949 µM, first compound 1 µM): 153%
- viability, T/C (second compound 0.00949 µM, first compound 3.16 µM): 113%
- viability, T/C (second compound 0.00949 µM, first compound 10 µM): 66.1%
- viability, T/C (second compound 0.03 µM, first compound 0.0316 µM): 106%
- viability, T/C (second compound 0.03 µM, first compound 0.1 µM): 98.3%
- viability, T/C (second compound 0.03 µM, first compound 0.316 µM): 106%
- viability, T/C (second compound 0.03 µM, first compound 1 µM): 112%
- viability, T/C (second compound 0.03 µM, first compound 3.16 µM): 78.2%
- viability, T/C (second compound 0.03 µM, first compound 10 µM): 80.2%
- viability, T/C (second compound 0.0949 µM, first compound 0.0316 µM): 108%
- viability, T/C (second compound 0.0949 µM, first compound 0.1 µM): 101%
- viability, T/C (second compound 0.0949 µM, first compound 0.316 µM): 104%
- viability, T/C (second compound 0.0949 µM, first compound 1 µM): 99.6%
- viability, T/C (second compound 0.0949 µM, first compound 3.16 µM): 118%
- viability, T/C (second compound 0.0949 µM, first compound 10 µM): 79.4%
- viability, T/C (second compound 0.3 µM, first compound 0.0316 µM): 101%
- viability, T/C (second compound 0.3 µM, first compound 0.1 µM): 97.6%
- viability, T/C (second compound 0.3 µM, first compound 0.316 µM): 120%
- viability, T/C (second compound 0.3 µM, first compound 1 µM): 126%
- viability, T/C (second compound 0.3 µM, first compound 3.16 µM): 101%
- viability, T/C (second compound 0.3 µM, first compound 10 µM): 69.9%
- viability, T/C (second compound 0.949 µM, first compound 0.0316 µM): 104%
- viability, T/C (second compound 0.949 µM, first compound 0.1 µM): 108%
- viability, T/C (second compound 0.949 µM, first compound 0.316 µM): 90.2%
- viability, T/C (second compound 0.949 µM, first compound 1 µM): 98.7%
- viability, T/C (second compound 0.949 µM, first compound 3.16 µM): 100%
- viability, T/C (second compound 0.949 µM, first compound 10 µM): 78.4%
- viability, T/C (second compound 3 µM, first compound 0.0316 µM): 72.3%
- viability, T/C (second compound 3 µM, first compound 0.1 µM): 74.1%
- viability, T/C (second compound 3 µM, first compound 0.316 µM): 77.2%
- viability, T/C (second compound 3 µM, first compound 1 µM): 86.6%
- viability, T/C (second compound 3 µM, first compound 3.16 µM): 69.9%
- viability, T/C (second compound 3 µM, first compound 10 µM): 53.6%

Source: PubChem BioAssay AID1963427 (Molecular Pharmacology Branch, DTP, NCI, 2024)
